Reference: ChEMBL document CHEMBL4619789, “RAF Kinases in Cancer: A Moving Target and Degradation Therapy” (ACS Med Chem Lett, 2020)

How the values were obtained:
[1] = Protac activity at E3 ubiquitin-protein ligase/B-raf V600E mutant in human A375 cells assessed as induction of B-raf V600E degradation measured after 72 hrs by Western cellular assay; type: cell-based; conditions: A-375, 72 h
A-375 = assay: Protac activity at E3 ubiquitin-protein ligase/B-raf V600E mutant in human A375 cells assessed as induction of B-raf V600E degradation measured after 72 hrs by Western cellular assay relative to control; type: cell-based

| SMILES | DC50 [1] [nM] | %max (A-375) [%] |
| --- | --- | --- |
| Cc1ncsc1-c1ccc(CNC(=O)[C@@H]2C[C@@H](O)CN2C(=O)[C@@H](NC(=O)CN2CC(N3CCN(c4ccc(-c5cnc6[nH]cc(C(=O)c7c(F)ccc(NS(=O)(=O)N8CC[C@@H](F)C8)c7F)c6c5)cc4)CC3)C2)C(C)(C)C)cc1 | < 10 | > 70 |
| O=C1CCC(N2Cc3cc(/C=C/CN4CCN(c5ccc(-c6cnc7[nH]cc(C(=O)c8c(F)ccc(NS(=O)(=O)N9CC[C@@H](F)C9)c8F)c7c6)cc5)CC4)ccc3C2=O)C(=O)N1 (some centres undefined) | < 10 | < 70 |
| O=C1CCC(N2Cc3cc(N4CC(N5CCN(c6ccc(-c7cnc8[nH]cc(C(=O)c9c(F)ccc(NS(=O)(=O)N%10CC[C@@H](F)C%10)c9F)c8c7)cc6)CC5)C4)ccc3C2=O)C(=O)N1 (some centres undefined) | < 10 | < 70 |
| O=C1CCC(N2Cc3cc(N4CC(OCC5CCN(c6ccc(-c7cnc8[nH]cc(C(=O)c9c(F)ccc(NS(=O)(=O)N%10CC[C@@H](F)C%10)c9F)c8c7)cc6)CC5)C4)ccc3C2=O)C(=O)N1 (some centres undefined) | < 10 | < 70 |
| Cc1ncsc1-c1ccc(CNC(=O)[C@@H]2C[C@@H](O)CN2C(=O)[C@@H](NC(=O)CN2CCN(CC3CCN(c4ccc(-c5cnc6[nH]cc(C(=O)c7c(F)ccc(NS(=O)(=O)N8CC[C@@H](F)C8)c7F)c6c5)cc4)CC3)CC2)C(C)(C)C)cc1 | < 10 | > 70 |
| O=C1CCC(N2Cc3cc(CCCN4CCC5(C4)CN(c4ccc(-c6cnc7[nH]cc(C(=O)c8c(F)ccc(NS(=O)(=O)N9CC[C@@H](F)C9)c8F)c7c6)cc4)C5)ccc3C2=O)C(=O)N1 (some centres undefined) | < 10 | < 70 |
| Cc1ncsc1-c1ccc(CNC(=O)[C@@H]2C[C@@H](O)CN2C(=O)[C@@H](c2cc(OCCN3CCN(c4ccc(-c5cnc6[nH]cc(C(=O)c7c(F)ccc(NS(=O)(=O)N8CC[C@@H](F)C8)c7F)c6c5)cc4)CC3)no2)C(C)C)cc1 | < 10 | > 70 |
| Cc1ncsc1-c1ccc([C@H](CO)NC(=O)[C@@H]2C[C@@H](O)CN2C(=O)[C@@H](c2cc(N3CCC(N4CCN(c5ccc(-c6cnc7[nH]cc(C(=O)c8c(F)ccc(NS(=O)(=O)N9CC[C@@H](F)C9)c8F)c7c6)cc5)CC4)CC3)no2)C(C)C)cc1 | 10 to 50 | > 70 |
| O=C1CCC(N2Cc3cc(N4CCN(Cc5ccc(-c6cnc7[nH]cc(C(=O)c8c(F)ccc(NS(=O)(=O)N9CC[C@@H](F)C9)c8F)c7c6)cc5)CC4)ccc3C2=O)C(=O)N1 (some centres undefined) | < 10 | > 70 |
| O=C1CCC(N2Cc3cc(N4CC[C@@H](N5CCN(c6ccc(-c7cnc8[nH]cc(C(=O)c9c(F)ccc(NS(=O)(=O)N%10CC[C@@H](F)C%10)c9F)c8c7)cc6)CC5)C4)ccc3C2=O)C(=O)N1 (some centres undefined) | < 10 | < 70 |
| Cc1ncsc1-c1ccc(CNC(=O)[C@@H]2C[C@@H](O)CN2C(=O)[C@@H](NC(=O)CN2CCC(CN3CCN(c4ccc(-c5cnc6[nH]cc(C(=O)c7c(F)ccc(NS(=O)(=O)N8CC[C@@H](F)C8)c7F)c6c5)cc4)CC3)CC2)C(C)(C)C)cc1 | < 10 | > 70 |
| Cc1ncsc1-c1ccc([C@H](C)NC(=O)[C@@H]2C[C@@H](O)CN2C(=O)[C@@H](NC(=O)CN2CCC(CN3CCN(c4ccc(-c5cnc6[nH]cc(C(=O)c7c(F)ccc(NS(=O)(=O)N8CC[C@@H](F)C8)c7F)c6c5)cc4)CC3)CC2)C(C)(C)C)cc1 | < 10 | > 70 |
